Laboratory results reported in patent publication US12171229B2, “Heteroaryl-triazole and heteroaryl-tetrazole compounds as pesticides” (BAYER AKTIENGESELLSCHAFT, priority 2018, dated 2024).

What was measured:
Type in all cases: in vivo
[1] = test system: Diabrotica balteata; test: Diabrotica balteata spray test; conditions: Diabrotica balteata, in Triticum aestivum, 168 h, after 7 days, larvae on wheat seeds, read-out: efficacy (seedlings grown up); for pest or weed control at 160 µg/disc, 500 g/ha: 160 μg/well (=500 g/ha); for pest or weed control at 80 µg/disc, 250 g/ha: 80 μg/well (=250 g/ha)
Description: Diabrotica balteata—Spray Test [table] To produce a suitable preparation of active compound, 1 part by weight of active compound is mixed with the stated amount of solvent, and the concentrate is diluted with water, containing an emulsifier concentration of 1000 ppm, to the desired concentration. Further test concentrations are prepared by dilution with emulsifier containing water. Soaked wheat seeds (Triticum aestivum) are placed in a multiple well plate filled with agar and some water and are incubated for 1 day to germinate (5 seeds per well). The germinated wheat seeds are sprayed with a test solution containing the desired concentration of the active ingredient. Afterwards each unit is infected with 10-20 larvae of the banded cucumber beetle (Diabrotica balteata). After 7 days efficacy in % is determined. 100% means all the seedlings have grown up like in the untreated, uninfected control; 0% means none of the seedlings have grown.

[2] = test system: Spodoptera frugiperda; test: Spodoptera frugiperda spray test; conditions: 168 h, after 7 days, larvae on maize leaf sections
Description: Spodoptera frugiperda—Spray Test
(§1) To produce a suitable preparation of active compound, 1 part by weight of active compound is mixed with the stated amount of solvents and is diluted with water, containing an emulsifier concentration of 1000 ppm, to the desired concentration. Further test concentrations are prepared by dilution with emulsifier containing water.
Maize (Zea mays) leaf sections are sprayed with a preparation of the active ingredient of the desired concentration. Once dry, the leaf sections are infested with fall armyworm larvae (Spodoptera frugiperda).
After 7 days mortality in % is determined. 100% means all caterpillars have been killed and 0% means none of the caterpillars have been killed.

[3] = test system: Myzus persicae; test: Myzus persicae spray test; conditions: foliar, 120 h, after 5 days, Chinese cabbage leaf disks
Description: Myzus persicae—Spray Test
as §1
Chinese cabbage (Brassica pekinensis) leaf disks infected with all instars of the green peach aphid (Myzus persicae), are sprayed with a preparation of the active ingredient of the desired concentration.
(§2) After 5 days mortality in % is determined. 100% means all aphids have been killed and 0% means none of the aphids have been killed.

[4] = test system: Nezara viridula; test: Nezara viridula spray test; conditions: 96 h, after 4 days, larvae on barley plants
Description: Nezara viridula—Spray Test
as §1, with “solvent,” for “solvents”, “and the concentrate” for “and”
Barley plants (Hordeum vulgare) infested with larvae of the southern green stink bug (Nezara viridula) are sprayed with a test solution containing the desired concentration of the active ingredient.
After 4 days mortality in % is determined. 100% means all the stink bugs have been killed: 0% means none of the stink bugs have been killed.

[5] = test system: Myzus persicae; test: Myzus persicae oral test; conditions: 120 h, 4 ppm, after 5 days
Description: Solvent: 100 parts by weight acetone
To produce a suitable preparation of active compound, 1 part by weight of active compound is mixed with the stated amount of solvent, and the concentrate is diluted with water to the desired concentration.
50 μl compound solution is filled in microtiter plates and 150 μl IPL41 insect medium (33%+15% sugar) is added to obtain a total volume of 200 μl per well. Afterwards the plates are sealed with parafilm through which a mixed population of the green peach aphid (Myzus persicae) can suck on the compound preparation.
as §2

[6] = test system: Aedes aegypti strain MONHEIM; test: Aedes aegypti test (AEDSAE surface treatment & contact assay); conditions: 24 hours after contact, read-out: efficacy (mortality); for mortality at 20 mg/m2: surface concentration 20 mg/m^2, exposure 30 minutes
Description: Aedes Aegypti Test (AEDSAE Surface Treatment & Contact Assay)
(§3) Solvent: Aceton+2000 ppm rapeseed oil methyl ester (RME)
(§4) In order to produce a sufficient, active ingredient containing solution it is necessary to solve the test compound in the solvent-mix (acetone at 2 mg/ml/RME 2000 ppm). This solution is pipetted onto a glazed tile and after evaporation of the acetone, adult mosquitoes of the species Aedes aegypti strain MONHEIM are placed onto the dried surface. The exposure time is 30 minutes.
(§5) Mortality in percent (%) is determined 24 hours after contact of the insects to the treated surface. 100% mortality means that all tested insects are dead, whereas 0% means that no insect died.

[7] = test system: Ctenocephalides felis; test: Ctenocephalides felis oral test; conditions: 48 h, 100 ppm in cattle blood, after 2 days, adult unfed cat fleas
Description: Ctenocephalides Felis—Oral Test
Solvent: dimethyl sulfoxide
To produce a suitable preparation of active compound, 10 mg of active compound are dissolved in 0.5 ml solvent, and the concentrate is diluted with cattle blood to the desired concentration.
Approximately 20 adult unfed cat fleas (Ctenocephalides felis) are placed in flea chambers. The blood chamber, sealed with parafilm on the bottom, are filled with cattle blood supplied with compound solution and placed on the gauze covered top of the flea chamber, so that the fleas are able to suck the blood. The blood chamber is heated to 37° C. whereas the flea chamber is kept at room temperature.
After 2 days mortality in % is determined. 100% means all the fleas have been killed; 0% means none of the fleas have been killed.

[8] = test system: Boophilus microplus; test: Boophilus microplus injection test; conditions: Rhipicephalus microplus, 168 h; 20 μg/animal injected into the abdomen; adult engorged female ticks; egg deposition after 7 days; read-out: efficacy (infertile eggs)
Description: Boophilus Microplus—Injection Test Solvent: dimethyl sulfoxide To produce a suitable preparation of active compound, 10 mg of active compound are dissolved in 0.5 ml solvent, and the concentrate is diluted with solvent to the desired concentration. Five adult engorged female ticks (Boophilus microplus) are injected with 1 μl compound solution into the abdomen. The ticks are transferred into replica plates and incubated in a climate chamber. After 7 days egg deposition of fertile eggs is monitored. Eggs where fertility is not visible are stored in a climate chamber till hatching after about 42 days. An efficacy of 100% means all eggs are infertile; 0% means all eggs are fertile.

[9] = test system: Culex quinquefasciatus strain P00; test: Culex quinquefasciatus test (CULXFA surface treatment & contact assay); conditions: surface concentration 4 mg/m^2, exposure 30 minutes, 24 hours after contact, read-out: efficacy (mortality)
Description: Culex Quinquefasciatus Test (CULXFA Surface Treatment & Contact Assay)
as §3
as §4, with “Culex quinquefasciatus” for “Aedes aegypti”, “P00” for “MONHEIM”
as §5

Compound	pest or weed control at 160 µg/disc, 500 g/ha [1]	mortality at 100 g/ha [2]	mortality at 500 g/ha [2]	mortality at 100 g/ha [3]	mortality at 500 g/ha [3]	mortality at 500 g/ha [4]	mortality at 4 ppm [5]	mortality at 100 g/ha [4]	pest or weed control at 80 µg/disc, 250 g/ha [1]	mortality at 4 mg/m2 ([6]; surface concentration 4 mg/m^2, exposure 30 minutes)	mortality at 20 mg/m2 [6]	mortality at 100 ppm [7]	pest or weed control at 0.02 mg [8]	mortality at 4 mg/m2 [9]
C[C@H](NC(=O)c1cc(Cl)cc(C(F)(F)F)c1)c1ncnn1-c1ccc(C(=O)N(C)C2CC2)cn1 [Example I-110, 6-(5-{(1S)-1-[3-chloro-5-(trifluoromethyl)benzamido]ethyl}-1H-1,2,4-triazol-1-yl)-N-cyclopropyl-N-methylnicotinamide]	100%	100%	100%	90%	100%	90%								
C[C@H](NC(=O)c1cc(Cl)cc(OC(F)F)c1)c1ncnn1-c1ccc(C#N)cn1 [Example I-107]	100%	100%	100%	90%	90%	100%	100%	100%						
Cc1nc([C@H](C)NC(=O)c2cc(Cl)cc(OC(F)(F)F)c2)n(-c2ccc(C#N)cn2)n1 [Example I-116]	100%	100%	100%	100%	100%	100%	100%	90%						
C[C@H](NC(=O)c1cncc(I)c1)c1ncnn1-c1ccc(C#N)cn1 [Example I-063]	100%		83%				100%		100%	90 to 100%	90 to 100%	100%	100%	
C[C@H](NC(=O)c1cc(F)c(Cl)c(F)c1)c1ncnn1-c1ccc(C#N)cn1 [Example I-021]			100%	100%			100%					100%		
C[C@H](NC(=O)c1cc(Cl)cc(C(F)(F)F)c1)c1ncnn1-c1ccc(NC(=O)CC#N)cn1 [Example I-073]	100%				90%				100%			100%	100%	
C[C@H](NC(=O)c1cc(Cl)cc(C(F)(F)F)c1)c1ncnn1-c1ccc(NS(C)(=O)=O)cn1 [Example I-054]	100%			90%	90%	100%	100%	90%	100%					
Cc1nc([C@H](C)NC(=O)c2cc(Cl)cc(Cl)c2)n(-c2ccc(C#N)cn2)n1 [Example I-115]	100%	100%	100%	90%	100%	100%	100%							
C[C@H](NC(=O)c1cc(F)c(F)c(F)c1)c1ncnn1-c1ccc(C#N)cn1 [Example I-020]	100%		100%						100%		90 to 100%	100%	100%	90 to 100%
C[C@H](NC(=O)c1cc(Cl)cc(C(F)(F)F)c1)c1ncnn1-c1ccc(NC(=S)C2CC2)cn1 [Example I-098]	100%	100%	100%	90%	90%	90%	100%		100%			100%		
CC(=O)Nc1ccc(-n2ncnc2[C@H](C)NC(=O)c2cc(Cl)cc(OC(F)(F)F)c2)nc1 [Example I-106]	100%	100%	100%		90%	100%	100%		100%					
C[C@H](NC(=O)c1cc(Cl)cc(C(F)(F)F)c1)c1ncnn1-c1ccc(NC(=O)C2(Cl)CC2)cn1 [Example I-104]	100%	100%	100%		90%	90%	90%							
CON=Cc1ccc(-n2ncnc2[C@H](C)NC(=O)c2cc(Cl)cc(C(F)(F)F)c2)nc1 [Example I-065, 3-chloro-N-[(1S)-1-(1-{5-[(methoxyimino)methyl]pyridin-2-yl}-1H-1,2,4-triazol-5-yl)ethyl]-5-(trifluoromethyl)benzamide]	100%	100%	100%		90%	90%			100%					
C[C@H](NC(=O)c1cc(Cl)cc(OC(F)(F)F)c1)c1ncnn1-c1ccc(NC(=O)C2CC2)cn1 [Example I-105]	100%	100%	100%		90%	100%	100%	100%	100%					
C[C@H](NC(=O)c1cc(Cl)cc(C(F)(F)F)c1)c1ncnn1-c1ccc(NC(=O)C2(C#N)CC2)cn1 [Example I-076]	100%	100%	100%		100%		100%		100%			90%	100%	
